Experimental data reported in patent US20170232083A1, “METHODS OF DIAGNOSIS AND TREATMENT OF CELIAC DISEASE IN CHILDREN” (priority 2014, published 2017).

System: PBMC (polyclonal gluten-specific T cells) of paediatric and adult CD patients
Assay: IFN-γ ELISpot of PBMC after 3 day oral wheat challenge (SFU, % of maximal peptide response, dominance scores, EC50; Examples 5-6)
Assay type: cell-based, human
Settings: for IFN-γ ELISpot response: after oral wheat challenge; for Cross-reactive T cell response: following wheat challenge
[1] = subject I (3-5yrs/6-10yrs part)
[2] = subject J (3-5yrs/6-10yrs part)
[3] = subject K (3-5yrs/6-10yrs part)
[4] = subject V (3-5yrs/6-10yrs part)
[5] = subject W (3-5yrs/6-10yrs part)
[6] = subject Y (3-5yrs/6-10yrs part)
[7] = subject five (3-5yrs/6-10yrs part)
[8] = subject seven (3-5yrs/6-10yrs part)
[9] = subject six (3-5yrs/6-10yrs part)
[10] = subject ten (3-5yrs/6-10yrs part)
[11] = subject two (3-5yrs/6-10yrs part)

## QPFPQPEQPFPWQP
Patient A, 11-17 yrs, cut-off 10 SFU
  IFN-γ ELISpot response: 3.5 SFU
Patient D, max peptide 30.5 SFU
  Significant response as percentage of maximal peptide SFU: + (>70% = +)
Patient E, H, 11-17 yrs, cut-off 10 SFU
  IFN-γ ELISpot response: 44 SFU
Patient E, max peptide 224 SFU
  Significant response as percentage of maximal peptide SFU: ′ (11-20% = ′)
Patient F, 11-17 yrs, cut-off 10 SFU
  IFN-γ ELISpot response: 84.5 SFU
Patient F, max peptide 178 SFU
  Significant response as percentage of maximal peptide SFU: ′′′ (41-70% = ′′′)
Patient G, 11-17 yrs, cut-off 10 SFU
  IFN-γ ELISpot response: 8 SFU
Patient H (HLA-DQ2.5 homozygote), 3-5yrs, cut-off 10 SFU
  IFN-γ ELISpot response: 27.5 SFU
Patient H, 11-17 yrs, cut-off 10 SFU
  IFN-γ ELISpot response: 8.5 SFU
Patient ID not given, 11-17 yrs, cut-off 10 SFU
  IFN-γ ELISpot response: 67.5 SFU
Patient ID not given, max peptide 95 SFU
  Significant response as percentage of maximal peptide SFU: + (>70% = +)
Patient II, max peptide 15 SFU
  Significant response as percentage of maximal peptide SFU: + (>70% = +)
Patient J, max peptide 196 SFU
  Significant response as percentage of maximal peptide SFU: ′′′ (41-70% = ′′′)
Patient K, max peptide 53 SFU
  Significant response as percentage of maximal peptide SFU: ′′ (21-40% = ′′)
Patient M, max peptide 48 SFU
  Significant response as percentage of maximal peptide SFU: ′′′ (41-70% = ′′′)
Patient N, 3-5yrs, cut-off 10 SFU
  IFN-γ ELISpot response: 7 SFU
Patient P, 11-17 yrs, cut-off 21.6 SFU
  IFN-γ ELISpot response: 20 SFU
Patient Q, 11-17 yrs, cut-off 10 SFU
  IFN-γ ELISpot response: 63 SFU
Patient U, H, 11-17 yrs, cut-off 10 SFU
  IFN-γ ELISpot response: 17 SFU
Patient U, max peptide 81 SFU
  Significant response as percentage of maximal peptide SFU: ′′ (21-40% = ′′)
Patient V, 6-10 yrs, cut-off 10 SFU
  IFN-γ ELISpot response: 25 SFU
Patient V, max peptide 35 SFU
  Significant response as percentage of maximal peptide SFU: + (>70% = +)
Patient Y, 6-10 yrs, cut-off 10 SFU
  IFN-γ ELISpot response: 10 SFU
Patient Y, max peptide 16 SFU
  Significant response as percentage of maximal peptide SFU: ′′′ (41-70% = ′′′)
Patient Z, max peptide 13 SFU
  Significant response as percentage of maximal peptide SFU: + (>70% = +)
Patient eleven, 6-10 yrs, cut-off 10 SFU
  IFN-γ ELISpot response: 20.5 SFU
Patient eleven, max peptide 57 SFU
  Significant response as percentage of maximal peptide SFU: ′′ (21-40% = ′′)
Patient five, max peptide 48 SFU
  Significant response as percentage of maximal peptide SFU: + (>70% = +)
Patient four, 3-5yrs, cut-off 10 SFU
  IFN-γ ELISpot response: 28.5 SFU
Patient four, max peptide 44 SFU
  Significant response as percentage of maximal peptide SFU: ′′′ (41-70% = ′′′)
Patient seven, 6-10 yrs, cut-off 10.5 SFU
  IFN-γ ELISpot response: 11 SFU
Patient seven, max peptide 27 SFU
  Significant response as percentage of maximal peptide SFU: ′′′ (41-70% = ′′′)
Patient six, 3-5yrs, cut-off 10 SFU
  IFN-γ ELISpot response: 10 SFU
Patient six, max peptide 13 SFU
  Significant response as percentage of maximal peptide SFU: + (>70% = +)
Patient ten, 3-5yrs, cut-off 10 SFU
  IFN-γ ELISpot response: 14.5 SFU
Patient ten, max peptide 14.5 SFU
  Significant response as percentage of maximal peptide SFU: + (>70% = +)
Patient three, 6-10 yrs, cut-off 10.5 SFU
  IFN-γ ELISpot response: 95 SFU
Patient twelve, 11-17 yrs, cut-off 10 SFU
  IFN-γ ELISpot response: 30.5 SFU
Patient two, 3-5yrs, cut-off 10 SFU
  IFN-γ ELISpot response: 52.5 SFU
Patient two, max peptide 60 SFU
  Significant response as percentage of maximal peptide SFU: + (>70% = +)
Subject A, 11-17yrs
  Cross-reactive T cell response: 15 SFU
Subject D, 11-17yrs
  Significant response as a percentage of maximal peptide SFU: + (>70% = +)
  Cross-reactive T cell response: 30.5 SFU
Subject E, 11-17yrs
  Significant response as a percentage of maximal peptide SFU: ′ (11-20% = ′)
  Cross-reactive T cell response: 44 SFU
Subject F, 11-17yrs
  Significant response as a percentage of maximal peptide SFU: ′′′ (41-70% = ′′′)
  Cross-reactive T cell response: 845 SFU
Subject G, 11-17yrs
  Cross-reactive T cell response: 8 SFU
Subject H
  Cross-reactive T cell response: 8.5 SFU
[1]
  Cross-reactive T cell response: 5.5 SFU
[2]
  Cross-reactive T cell response: 95- SFU
Subject K
  Significant response as a percentage of maximal peptide SFU: ′′ (21-40% = ′′)
[3]
  Cross-reactive T cell response: 18.5 SFU
Subject P, 11-17yrs
  Cross-reactive T cell response: 20 SFU
Subject Q, 11-17yrs
  Significant response as a percentage of maximal peptide SFU: ′′′ (41-70% = ′′′)
  Cross-reactive T cell response: 63 SFU
Subject T, 11-17yrs
  Cross-reactive T cell response: 67.5 SFU
Subject U, 11-17yrs
  Significant response as a percentage of maximal peptide SFU: ′′ (21-40% = ′′)
  Cross-reactive T cell response: 17 SFU
Subject V
  Significant response as a percentage of maximal peptide SFU: + (>70% = +)
[4]
  Cross-reactive T cell response: 25 SFU
[5]
  Cross-reactive T cell response: 9 SFU
[6]
  Cross-reactive T cell response: 10- SFU
Subject five
  Significant response as a percentage of maximal peptide SFU: + (>70% = +)
[7]
  Cross-reactive T cell response: 40.5 SFU
Subject nine, 11-17yrs
  Cross-reactive T cell response: 15 SFU
Subject seven
  Significant response as a percentage of maximal peptide SFU: ′′ (21-40% = ′′)
[8]
  Cross-reactive T cell response: 11 SFU
Subject six
  Significant response as a percentage of maximal peptide SFU: + (>70% = +)
[9]
  Cross-reactive T cell response: 10 SFU
Subject ten
  Significant response as a percentage of maximal peptide SFU: + (>70% = +)
[10]
  Cross-reactive T cell response: 14.5 SFU
Subject two
  Significant response as a percentage of maximal peptide SFU: + (>70% = +)
[11]
  Cross-reactive T cell response: 52.5 SFU

## QPFPQPEQPFRQQ
Subject A, 11-17yrs
  Cross-reactive T cell response: 1 SFU
Subject D, 11-17yrs
  Significant response as a percentage of maximal peptide SFU: ′′′ (41-70% = ′′′)
  Cross-reactive T cell response: 15 SFU
Subject E, 11-17yrs
  Significant response as a percentage of maximal peptide SFU: ′ (11-20% = ′)
  Cross-reactive T cell response: 37 SFU
Subject F, 11-17yrs
  Significant response as a percentage of maximal peptide SFU: ′ (11-20% = ′)
  Cross-reactive T cell response: 21 SFU
Subject G, 11-17yrs
  Cross-reactive T cell response: 3 SFU
Subject H
  Cross-reactive T cell response: 0 SFU
[1]
  Cross-reactive T cell response: 4 SFU
Subject J
  Significant response as a percentage of maximal peptide SFU: (6-10% - ^)
[2]
  Cross-reactive T cell response: 15 SFU
Subject K
  Significant response as a percentage of maximal peptide SFU: ′′ (21-40% = ′′)
[3]
  Cross-reactive T cell response: 21 SFU
Subject P, 11-17yrs
  Cross-reactive T cell response: 16 SFU
Subject Q, 11-17yrs
  Significant response as a percentage of maximal peptide SFU: ′′′ (41-70% = ′′′)
  Cross-reactive T cell response: 44 SFU
Subject T, 11-17yrs
  Significant response as a percentage of maximal peptide SFU: ′′′ (41-70% = ′′′)
  Cross-reactive T cell response: 58 SFU
Subject U, 11-17yrs
  Significant response as a percentage of maximal peptide SFU: ′′ (21-40% = ′′)
  Cross-reactive T cell response: 21 SFU
Subject V
  Significant response as a percentage of maximal peptide SFU: ′′′ (41-70% = ′′′)
[4]
  Cross-reactive T cell response: 20 SFU
[5]
  Cross-reactive T cell response: 8 SFU
[6]
  Cross-reactive T cell response: 8 SFU
Subject five
  Significant response as a percentage of maximal peptide SFU: + (>70% = +)
[7]
  Cross-reactive T cell response: 37 SFU
Subject nine, 11-17yrs
  Cross-reactive T cell response: 0 SFU
[8]
  Cross-reactive T cell response: 6 SFU
[9]
  Cross-reactive T cell response: 5 SFU
[10]
  Cross-reactive T cell response: 6 SFU
Subject two
  Significant response as a percentage of maximal peptide SFU: ′′ (21-40% = ′′)
[11]
  Cross-reactive T cell response: 24 SFU
